According to US5602153A, “Method of using 1-arylheteroarylalkyl substituted-1H-1,2,4-triazole compounds for treatment of a giaucoma disorder” (G.D. Searle & Co., priority 1993, dated 1997):
Where two headings read alike, the source gives them in different places.

What was measured:
[1] = target: T1, rabbit aortic rings (Oryctolagus cuniculus, UniProt P34976); assay: Assay B: In Vitro Vascular Smooth Muscle-Response for AII (antagonist activity in rabbit aortic rings); assay type: cell-based, rabbit (male New Zealand white); details: antagonist 10^-5 M for 5 min, AII challenge
T1 construct: The thoracic aorta was removed, cleaned of adherent fat and connective tissue; from tissue; host or cells: thoracic aorta rings, endothelium removed, male New Zealand white rabbit
T1 sequence (P34976 1-359): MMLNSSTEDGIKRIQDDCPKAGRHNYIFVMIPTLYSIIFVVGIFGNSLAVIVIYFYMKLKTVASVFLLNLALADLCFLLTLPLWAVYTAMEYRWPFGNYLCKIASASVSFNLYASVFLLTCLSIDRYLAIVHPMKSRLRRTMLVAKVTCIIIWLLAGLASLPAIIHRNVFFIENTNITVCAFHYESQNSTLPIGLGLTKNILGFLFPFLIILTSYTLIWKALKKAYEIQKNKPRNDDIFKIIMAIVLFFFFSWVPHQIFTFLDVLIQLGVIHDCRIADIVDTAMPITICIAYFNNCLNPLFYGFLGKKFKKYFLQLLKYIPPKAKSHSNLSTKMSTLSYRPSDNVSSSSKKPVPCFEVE
Procedure: Assay B: In Vitro Vascular Smooth Muscle-Response for AII The compounds of the invention were tested for antagonist activity in rabbit aortic rings. Male New Zealand white rabbits (2-2.5 kg) were sacrificed using an overdose of pentobarbital and exsanguinated via the carotid arteries. The thoracic aorta was removed, cleaned of adherent fat and connective tissue and then cut into 3-mm ring segments. The endothelium was removed from the rings by gently sliding a rolled-up piece of filter paper into the vessel lumen. The rings were then mounted in a water-jacketed tissue bath, maintained at 37° C., between moveable and fixed ends of a stainless steel wire with the moveable end attached to an FT03 Grass transducer coupled to a Model 7D Grass Polygraph for recording isometric force responses. The bath was filled with 20 ml of oxygenated (95% oxygen/5% carbon dioxide) Krebs solution of the following composition (mM): 130 NaCl, 15 NaHCO3, 15 KCl, 1.2 NaH2 PO4, 1.2 MgSO4, 2.5 CaCl2, and 11.4 glucose. The preparations were equilibrated for one hour before approximately one gram of passive tension was placed on the rings. Angiotensin II concentration-response curves were then recorded (3×10^-10 to 1×10^-5 M). Each concentration of AII was allowed to elicit its maximal contraction, and then AII was washed out repeatedly for 30 minutes before rechallenging with a higher concentration of AII. Aorta rings were exposed to the test antagonist at 10^-5 M for 5 minutes before challenging with AII. Adjacent segments of the same aorta ring were used for all concentration-response curves in the presence or absence of the test antagonist. The effectiveness of the test compound was expressed in terms of pA2 values and were calculated according to H.O. Schild [Br. J. Pharmacol. Chemother., 2, 189-206 (1947)]. The pA2 value is the concentration of the antagonist which increases the EC50 value for AII by a factor of two. Each test antagonist was evaluated in aorta rings from two rabbits.

[2] = system: pressor response to AII; assay: Assay D: In Vivo Intragastric Pressor Assay Response for AII Antagonists of Examples #1 and #3; set-up: species or system rat (male Sprague-Dawley); details: 3 mg/kg gavage
Procedure: Assay D: In Vivo Intragastric Pressor Assay Response for AII Antagonists of Examples #1 and #3
Male Sprague-Dawley rats weighing 225-300 grams were anesthetized with methohexital (30 mg/kg, i.p.) and catheters were implanted into the femoral artery and vein. The catheters were tunneled subcutaneously to exit dorsally, posterior to the head and between the scapulae. The catheters were filled with heparin (1000 units/ml of saline). The rats were returned to their cage and allowed regular rat chow and water ad libitum. After full recovery from surgery (3-4 days), rats were placed in Lucite holders and the arterial line was connected to a pressure transducer. Arterial pressure was recorded on a Gould polygraph (mmHg). Angiotensin II was administered as a 30 ng/kg bolus via the venous catheter delivered in a 50 μl volume with a 0.2 ml saline flush. The pressor response in mm Hg was measured by the difference from pre-injection arterial pressure to the maximum pressure achieved. The AII injection was repeated every 10 minutes until three consecutive injections yielded responses within 4 mmHg of each other. These three responses were then averaged and represented the control response to AII. The test compound was suspended in 0.5% methylcellulose in water and was administered by gavage. The volume administered was 2 ml/kg body weight. The standard dose was 3 mg/kg. […] The pressor response to AII was measured at each time point. The rats were then returned to their cage for future testing. A minimum of 3 days was allowed between tests. Percent inhibition was calculated for each time point following gavage by the following formula: [(Control Response-Response at time point)/Control Response]×100.

CCCCc1nc(CCCC)n(Cc2ccc(-c3ccccc3-c3nnn[nH]3)cn2)n1 [Example 1, 5-[2-[6-[(3,5-dibutyl-1H-1,2,4-triazol-1-yl)methyl]-3-pyridinyl]phenyl]-1H-tetrazole]
Kb ([1]; first of two rabbits, read-out: pA2 (first value) (converted)): 13.2 nM | Kb ([1]; second of two rabbits, read-out: pA2 (converted)): 9.77 nM | % Inhibition of Blood Pressure Elevation ([2]; Rat A, 0 min): 0% | % Inhibition of Blood Pressure Elevation ([2]; Rat A, 30 min): 14% | % Inhibition of Blood Pressure Elevation ([2]; Rat A, 45 min): 20% | % Inhibition of Blood Pressure Elevation ([2]; Rat A, 60 min): 40% | % Inhibition of Blood Pressure Elevation ([2]; Rat A, 75 min): 33% | % Inhibition of Blood Pressure Elevation ([2]; Rat A, 90 min): 37% | % Inhibition of Blood Pressure Elevation ([2]; Rat A, 120 min): 37% | % Inhibition of Blood Pressure Elevation ([2]; Rat A, 150 min): 40% | % Inhibition of Blood Pressure Elevation ([2]; Rat A, 180 min): 33% | % Inhibition of Blood Pressure Elevation ([2]; Rat B, 0 min): 0% | % Inhibition of Blood Pressure Elevation ([2]; Rat B, 30 min): 11% | % Inhibition of Blood Pressure Elevation ([2]; Rat B, 45 min): 15% | % Inhibition of Blood Pressure Elevation ([2]; Rat B, 60 min): 26% | % Inhibition of Blood Pressure Elevation ([2]; Rat B, 75 min): 23% | % Inhibition of Blood Pressure Elevation ([2]; Rat B, 90 min): 21% | % Inhibition of Blood Pressure Elevation ([2]; Rat B, 120 min): 23% | % Inhibition of Blood Pressure Elevation ([2]; Rat B, 150 min): 23% | % Inhibition of Blood Pressure Elevation ([2]; Rat B, 180 min): 13% | % Inhibition of Blood Pressure Elevation ([2]; Rat C, 0 min): 0% | % Inhibition of Blood Pressure Elevation ([2]; Rat C, 30 min): 16% | % Inhibition of Blood Pressure Elevation ([2]; Rat C, 45 min): 6% | % Inhibition of Blood Pressure Elevation ([2]; Rat C, 60 min): 29% | % Inhibition of Blood Pressure Elevation ([2]; Rat C, 75 min): 2% | % Inhibition of Blood Pressure Elevation ([2]; Rat C, 90 min): 10% | % Inhibition of Blood Pressure Elevation ([2]; Rat C, 120 min): 16% | % Inhibition of Blood Pressure Elevation ([2]; Rat C, 150 min): -4% | % Inhibition of Blood Pressure Elevation ([2]; Rat C, 180 min): 10% | % Inhibition of Blood Pressure Elevation ([2]; Rats A-C Mean ± SE, 30 min): 14 ± 2% | % Inhibition of Blood Pressure Elevation ([2]; Rats A-C Mean ± SE, 45 min): 14 ± 4% | % Inhibition of Blood Pressure Elevation ([2]; Rats A-C Mean ± SE, 60 min): 31 ± 4% | % Inhibition of Blood Pressure Elevation ([2]; Rats A-C Mean ± SE, 75 min): 20 ± 9% | % Inhibition of Blood Pressure Elevation ([2]; Rats A-C Mean ± SE, 90 min): 23 ± 8% | % Inhibition of Blood Pressure Elevation ([2]; Rats A-C Mean ± SE, 120 min): 26 ± 6% | % Inhibition of Blood Pressure Elevation ([2]; Rats A-C Mean ± SE, 150 min): 20 ± 13% | % Inhibition of Blood Pressure Elevation ([2]; Rats A-C Mean ± SE, 180 min): 19 ± 7%
